# From patent publication US12570642B2, “GLP-IR modulating compounds” (Gilead Sciences, Inc., priority 2021, dated 2026)
# Target: GLP-1R (Homo sapiens, UniProt P43220)
# Experiment: GLP-1R Activation - cAMP Assay
# Type: cell-based
# Conditions: cAMP increase in CHO cells stably expressing GLP-1R; each compound run on one of the two cAMP assays (Assay 1 or Assay 2, not specified)
# How it was run: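 CHO cells stably expressing GLP-1R, plated at 1,000 cells/well overnight, then equilibrated 1 h in HBSS with 20 mM Hepes and 0.1% BSA. Agonist added as 10-point dose response for 30 min at 37 °C. cAMP measured by HTRF (Cisbio Gs Dynamic kit); EC50 from sigmoidal fit.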
# GLP-1R, sequence (P43220 24-463): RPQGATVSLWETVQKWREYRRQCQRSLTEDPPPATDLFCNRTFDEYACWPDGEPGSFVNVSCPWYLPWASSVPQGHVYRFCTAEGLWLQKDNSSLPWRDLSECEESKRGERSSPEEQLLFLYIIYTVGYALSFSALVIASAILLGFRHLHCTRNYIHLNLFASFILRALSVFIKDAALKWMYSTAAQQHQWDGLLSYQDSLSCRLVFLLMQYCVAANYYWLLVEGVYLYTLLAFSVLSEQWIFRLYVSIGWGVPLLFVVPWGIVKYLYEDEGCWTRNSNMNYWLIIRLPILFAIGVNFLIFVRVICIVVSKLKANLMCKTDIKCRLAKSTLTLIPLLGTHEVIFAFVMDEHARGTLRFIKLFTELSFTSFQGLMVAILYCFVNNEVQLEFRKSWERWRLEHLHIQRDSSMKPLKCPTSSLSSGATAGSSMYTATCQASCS
row,EC50 [nM],Compound
1,1.61,"CC1(C)COC[C@H]1n1c(Cc2cc(F)c(-c3cccc(OCc4ccc(C(F)(F)F)nn4)n3)cc2F)nc2ccc(C(=O)O)cc21 [Example 470, (S)-2-(2,5-difluoro-4-(6-((6-(trifluoromethyl)pyridazin-3-yl)methoxy)pyridin-2-yl)benzyl)-1-(4,4-dimethyltetrahydrofuran-3-yl)-1H-benzo[d]imidazole-6-carboxylic acid]"
2,0.041,"C[C@H]1COC[C@H]1n1c(Cc2cc(F)c(-c3ccc(F)c(OCc4ccc(Cl)cc4F)n3)cc2F)nc2ccc(C(=O)O)cc21 [Example 471, 2-(4-(6-((4-chloro-2-fluorobenzyl)oxy)-5-fluoropyridin-2-yl)-2,5-difluorobenzyl)-1-((3S,4R)-4-methyltetrahydrofuran-3-yl)-1H-benzo[d]imidazole-6-carboxylic acid]"
3,0.069,"C[C@H]1COC[C@H]1n1c(Cc2cc(F)c(-c3cccc(OCc4ccc(Cl)cc4F)n3)cc2F)nc2ccc(C(=O)O)cc21 [Example 472, 2-(4-(6-((4-chloro-2-fluorobenzyl)oxy)pyridin-2-yl)-2,5-difluorobenzyl)-1-((3S,4R)-4-methyltetrahydrofuran-3-yl)-1H-benzo[d]imidazole-6-carboxylic acid]"
4,0.601,"CC1(C)COC[C@H]1n1c(Cc2cc(F)c(-c3ccc(F)c(OCc4c(F)cccc4F)n3)cc2F)nc2ccc(C(=O)O)cc21 [Example 475, (S)-2-(4-(6-((2,6-difluorobenzyl)oxy)-5-fluoropyridin-2-yl)-2,5-difluorobenzyl)-1-(4,4-dimethyltetrahydrofuran-3-yl)-1H-benzo[d]imidazole-6-carboxylic acid]"
5,0.614,"CC1(C)COC[C@H]1n1c(Cc2cc(F)c(-c3cccc(OCc4c(F)cccc4F)n3)cc2F)nc2ccc(C(=O)O)cc21 [Example 476, (S)-2-(4-(6-((2,6-difluorobenzyl)oxy)pyridin-2-yl)-2,5-difluorobenzyl)-1-(4,4-dimethyltetrahydrofuran-3-yl)-1H-benzo[d]imidazole-6-carboxylic acid]"
6,0.171,"CC1(C)COC[C@H]1n1c(Cc2cc(F)c(-c3ccc(F)c(OCc4ccccc4F)n3)cc2F)nc2ccc(C(=O)O)cc21 [Example 477, (S)-2-(2,5-difluoro-4-(5-fluoro-6-((2-fluorobenzyl)oxy)pyridin-2-yl)benzyl)-1-(4,4-dimethyltetrahydrofuran-3-yl)-1H-benzo[d]imidazole-6-carboxylic acid]"
7,0.25,"CC1(C)COC[C@H]1n1c(Cc2cc(F)c(-c3cccc(OCc4ccccc4F)n3)cc2F)nc2ccc(C(=O)O)cc21 [Example 478, (S)-2-(2,5-difluoro-4-(6-((2-fluorobenzyl)oxy)pyridin-2-yl)benzyl)-1-(4,4-dimethyltetrahydrofuran-3-yl)-1H-benzo[d]imidazole-6-carboxylic acid]"
8,0.249,"CC1(C)COC[C@H]1n1c(Cc2c(F)cc(-c3ccc(F)c(OCc4ccc(C#N)cc4F)n3)c(F)c2F)nc2c(F)cc(C(=O)O)cc21 [Example 479, (S)-2-(4-(6-((4-cyano-2-fluorobenzyl)oxy)-5-fluoropyridin-2-yl)-2,3,6-trifluorobenzyl)-1-(4,4-dimethyltetrahydrofuran-3-yl)-4-fluoro-1H-benzo[d]imidazole-6-carboxylic acid]"
9,0.223,"C[C@H]1COC[C@H]1n1c(Cc2cc(F)c(-c3ccc(F)c(OCc4ccc(C#N)cc4)n3)cc2F)nc2ccc(C(=O)O)cc21 [Example 480, 2-(4-(6-((4-cyanobenzyl)oxy)-5-fluoropyridin-2-yl)-2,5-difluorobenzyl)-1-((3S,4R)-4-methyltetrahydrofuran-3-yl)-1H-benzo[d]imidazole-6-carboxylic acid]"
10,0.883,"C[C@H]1COC[C@H]1n1c(Cc2cc(F)c(-c3ccc(F)c(OCc4cc(F)c(C#N)cc4F)n3)cc2F)nc2ccc(C(=O)O)cc21 [Example 481, 2-(4-(6-((4-cyano-2,5-difluorobenzyl)oxy)-5-fluoropyridin-2-yl)-2,5-difluorobenzyl)-1-((3S,4R)-4-methyltetrahydrofuran-3-yl)-1H-benzo[d]imidazole-6-carboxylic acid]"
11,0.011,"CC1(C)COC[C@H]1n1c(Cc2c(F)cc(-c3ccc(F)c(OCc4ccc(C#N)cc4F)n3)c(F)c2F)nc2ccc(C(=O)O)cc21 [Example 482, (S)-2-(4-(6-((4-cyano-2-fluorobenzyl)oxy)-5-fluoropyridin-2-yl)-2,3,6-trifluorobenzyl)-1-(4,4-dimethyltetrahydrofuran-3-yl)-1H-benzo[d]imidazole-6-carboxylic acid]"
12,0.022,"CC1(C)COC[C@H]1n1c(Cc2cc(F)c(-c3ccc(F)c(OCc4cc(F)c(C#N)cc4F)n3)cc2F)nc2c(F)cc(C(=O)O)cc21 [Example 483, (S)-2-(4-(6-((4-cyano-2,5-difluorobenzyl)oxy)-5-fluoropyridin-2-yl)-2,5-difluorobenzyl)-1-(4,4-dimethyltetrahydrofuran-3-yl)-4-fluoro-1H-benzo[d]imidazole-6-carboxylic acid]"
13,0.155,"C[C@H]1COC[C@H]1n1c(Cc2cc(F)c(-c3ccnc(OCc4ccc(Cl)cc4F)n3)cc2F)nc2ccc(C(=O)O)cc21 [Example 484, 2-(4-(2-((4-chloro-2-fluorobenzyl)oxy)pyrimidin-4-yl)-2,5-difluorobenzyl)-1-((3S,4R)-4-methyltetrahydrofuran-3-yl)-1H-benzo[d]imidazole-6-carboxylic acid]"
14,0.203,"COCCn1c(Cc2c(F)cc(-c3ccc(F)c(OCc4ccc(Cl)cc4F)n3)c(F)c2F)nc2c(F)cc(C(=O)O)cc21 [Example 485, 2-(4-(6-((4-chloro-2-fluorobenzyl)oxy)-5-fluoropyridin-2-yl)-2,3,6-trifluorobenzyl)-4-fluoro-1-(2-methoxyethyl)-1H-benzo[d]imidazole-6-carboxylic acid]"
15,0.054,"C[C@H]1COC[C@H]1n1c(Cc2cc(F)c(-c3ccc(F)c(OCc4ccc(C#N)cc4F)n3)cc2F)nc2ccc(C(=O)O)cc21 [Example 486, 2-(4-(6-((4-cyano-2-fluorobenzyl)oxy)-5-fluoropyridin-2-yl)-2,5-difluorobenzyl)-1-((3S,4R)-4-methyltetrahydrofuran-3-yl)-1H-benzo[d]imidazole-6-carboxylic acid]"
16,0.159,"CC1(C)COC[C@H]1n1c(Cc2cc(F)c(-c3cccc(OCc4cc(F)c(C#N)cc4F)n3)cc2F)nc2ccc(C(=O)O)cc21 [Example 487, (S)-2-(4-(6-((4-cyano-2,5-difluorobenzyl)oxy)pyridin-2-yl)-2,5-difluorobenzyl)-1-(4,4-dimethyltetrahydrofuran-3-yl)-1H-benzo[d]imidazole-6-carboxylic acid]"
17,0.282,"CC1(C)COC[C@H]1n1c(Cc2cc(F)c(-c3cccc(OCc4ccc(Cl)c(F)c4F)n3)cc2F)nc2ccc(C(=O)O)cc21 [Example 488, (S)-2-(4-(6-((4-chloro-2,3-difluorobenzyl)oxy)pyridin-2-yl)-2,5-difluorobenzyl)-1-(4,4-dimethyltetrahydrofuran-3-yl)-1H-benzo[d]imidazole-6-carboxylic acid]"
18,0.342,"CC1(C)COC[C@H]1n1c(Cc2cc(F)c(-c3cccc(OCc4c(F)cc(Cl)cc4F)n3)cc2F)nc2ccc(C(=O)O)cc21 [Example 489, (S)-2-(4-(6-((4-chloro-2,6-difluorobenzyl)oxy)pyridin-2-yl)-2,5-difluorobenzyl)-1-(4,4-dimethyltetrahydrofuran-3-yl)-1H-benzo[d]imidazole-6-carboxylic acid]"
19,0.182,"CC1(C)COC[C@H]1n1c(Cc2cc(F)c(-c3cccc(OCc4cc(F)c(Cl)cc4F)n3)cc2F)nc2ccc(C(=O)O)cc21 [Example 490, (S)-2-(4-(6-((4-chloro-2,5-difluorobenzyl)oxy)pyridin-2-yl)-2,5-difluorobenzyl)-1-(4,4-dimethyltetrahydrofuran-3-yl)-1H-benzo[d]imidazole-6-carboxylic acid]"
20,0.079,"CC1(C)COC[C@H]1n1c(Cc2cc(F)c(-c3ccc(F)c(OCc4cc(F)c(C#N)cc4F)n3)cc2F)nc2ccc(C(=O)O)cc21 [Example 491, (S)-2-(4-(6-((4-cyano-2,5-difluorobenzyl)oxy)-5-fluoropyridin-2-yl)-2,5-difluorobenzyl)-1-(4,4-dimethyltetrahydrofuran-3-yl)-1H-benzo[d]imidazole-6-carboxylic acid]"
21,0.191,"CC1(C)COC[C@H]1n1c(Cc2cc(F)c(-c3cccc(OCc4ccc(C#N)c(F)c4F)n3)cc2F)nc2ccc(C(=O)O)cc21 [Example 492, (S)-2-(4-(6-((4-cyano-2,3-difluorobenzyl)oxy)pyridin-2-yl)-2,5-difluorobenzyl)-1-(4,4-dimethyltetrahydrofuran-3-yl)-1H-benzo[d]imidazole-6-carboxylic acid]"
22,0.278,"CC1(C)COC[C@H]1n1c(Cc2cc(F)c(-c3cccc(OCc4c(F)cc(C#N)cc4F)n3)cc2F)nc2ccc(C(=O)O)cc21 [Example 493, (S)-2-(4-(6-((4-cyano-2,6-difluorobenzyl)oxy)pyridin-2-yl)-2,5-difluorobenzyl)-1-(4,4-dimethyltetrahydrofuran-3-yl)-1H-benzo[d]imidazole-6-carboxylic acid]"
23,0.051,"C[C@H]1COC[C@H]1n1c(Cc2cc(F)c(-c3cccc(OCc4ccc(C#N)cc4F)n3)cc2F)nc2ccc(C(=O)O)cc21 [Example 494, 2-(4-(6-((4-cyano-2-fluorobenzyl)oxy)pyridin-2-yl)-2,5-difluorobenzyl)-1-((3S,4R)-4-methyltetrahydrofuran-3-yl)-1H-benzo[d]imidazole-6-carboxylic acid]"
24,0.144,"CC1(C)COC[C@H]1n1c(Cc2cc(F)c(-c3ccc(F)c(OCc4ccc(Cl)cc4F)n3)cc2F)nc2c(F)cc(C(=O)O)cc21 [Example 495, (S)-2-(4-(6-((4-chloro-2-fluorobenzyl)oxy)-5-fluoropyridin-2-yl)-2,5-difluorobenzyl)-1-(4,4-dimethyltetrahydrofuran-3-yl)-4-fluoro-1H-benzo[d]imidazole-6-carboxylic acid]"
